Series [1] is described as follows: Cytotoxicity against rat PC-12 cells assessed as cell viability at 100 uM measured after 24 hrs by CCK-8 assay (reference value: 100%). To be noted: read-out: Activity. It is filed as toxicity, cell-based. For orientation: Tetrazolium dyes change colour on reduction, which living cells bring about.
Series [2] has as its target Alpha-synuclein (Homo sapiens, UniProt P37840). Nature of the series: Inhibition of alpha-Synuclein (unknown origin) aggregation assessed as aggregation inhibition ratio measured after 72 hrs by Thioflavin T based fluorescence assay.

SMILES strings stand for the structures. A value given as a limit tells only on which side of the number the result lay.

By IC50 is commonly meant the concentration at which inhibition is half-maximal.

Consider `O=C(Nc1ccc2oc(=O)ccc2c1)c1cc(O)ccc1O`, for which, in series [1], the viability at 24 h, 100 µM was above 80%.
On to `Oc1cc(O)c2c(c1)O[C@H](c1cc(O)c(O)c(O)c1)[C@H](O)C2` [EPIGALLOCATECHIN], for which the half-maximal inhibitory concentration (IC50) in series [2] came out at 2580 nM.
In the case of `O=C(/C=C/c1cc(O)c(O)c(O)c1)Nc1ccc2oc(=O)ccc2c1`, the viability at 24 h, 100 µM in series [1] was above 90%.
In the case of `O=C(/C=C/c1cc(O)ccc1O)Nc1ccc2oc(=O)c(NC(=O)/C=C/c3cc(O)ccc3O)cc2c1`, in series [1], the viability at 24 h, 100 µM was above 90%.
Still for that read-out and setting: next, `O=C(/C=C/c1cc(O)ccc1O)Nc1ccc2oc(=O)ccc2c1`: above 90%.

The values are drawn from ChEMBL document CHEMBL5579795, “Therapeutic potential of Coumarin-polyphenolic acid hybrids in PD: Inhibition of α-Syn aggregation and disaggregation of preformed fibrils, leading to reduced neuronal inclusion formation” (Bioorg Med Chem Lett, 2024).
